The values below come from patent US20260072021A1, “SYSTEM, METHOD, AND APPARATUS FOR MICRONEEDLE ARRAY-BASED IMM[…] MULTIPLEX DETECTION OF BIOMARKERS” (The General Hospital Corporation, priority 2022, published 2026).

A short description of data set [1]: Pharmacokinetic study: blood concentrations of cocaine and BZE in mice after IP cocaine (LC-MS). The class given is in vivo. The following applies: cocaine 1.5 mg/Kg IP, blood sampled at 0, 0.5, 1 and 5 min post-injection. As to the method:
Panel A. Time-dependent blood concentrations of COC and BZE in mice receiving 1.5 mg/Kg cocaine per mouse via IP injection. Panel B. Experimental setup of in vivo detection of circulating COC/BZE using MN-based aptasensor on a B6 black mouse. Panel C. Time-dependent fluorescence intensity of an individual MN that pierces into the mouse skin.
An optical fiber of 500 um in diameter was engineered including 6 emission light collection fibers each at 125 um in diameter, surrounding the single excitation light fiber at the center (FIGS. 13a & 13c). The excitation laser (532-589 nm) is administered directly to the upper dermis via the fiber and transparent MNA to induce skin capillary leakage or extravasation of biomarkers. […] To validate this, cocaine was IP administered at 1.5 mg/Kg per mouse and blood was sampled at 0, 0.5, 1, and 5 min, post-injection. […] When the MNA aptasensor was inserted into the black B6 mice receiving 1.5 mg/kg cocaine intraperitoneally and illuminated with 532 nm laser on the dorsal skin (FIG. 15B), a significant growth of fluorescence intensity as a function of time due to displacement of QDNA by cocaine was clearly seen on individual microneedles (FIG. 15C), confirming the ability of the aptasensor to detect the illicit drug in real time. […]

The conditions of data set [2]: humans; cited from earlier work.

`CN1[C@H]2CC[C@@H]1[C@@H](C(=O)O)[C@@H](OC(=O)c1ccccc1)C2` [BZE, benzoylecgonine]: the “blood concentration over time” value in data set [1] is “increasing sharply at the first 1 min and then stayed in plateau”.

Take `COC(=O)[C@H]1[C@@H](OC(=O)c2ccccc2)C[C@@H]2CC[C@H]1N2C` [cocaine]: the “blood concentration over time” value in data set [1] was “slightly increased over the 5 min”. Moreover, the “cocaine concentration in blood” value in data set [2] is 0.06 to 0.1 mg/L.
